Laboratory results published in patent US10815276B2, “Cell penetrating peptides and methods of making and using thereof” (Entrada Therapeutics, Inc., priority 2014, dated 2020).
Starred links: 1 amine or outer side, 2 acyl side, 3 side chain; linkers in the order of their positions; H or OH if unused. Positions of bridges follow the written chain, without caps; N, C: chain ends. Non-standard residues stand in square brackets, D forms with d. Residues, ends and D or L forms follow the SMILES beside them. Trimesoyl = O=C(c1cc(C(=O)[*:2])cc(C(=O)[*:3])c1)[*:1]; Phe(3,4-F2) = N[C@@H](Cc1ccc(F)c(F)c1)C(=O)O; Phe(4-F) = N[C@@H](Cc1ccc(F)cc1)C(=O)O; 2Nal = N[C@@H](Cc1ccc2ccccc2c1)C(=O)O; Pip = O=C(O)[C@@H]1CCCCN1; Dap = NC[C@H](N)C(=O)O; Sar = CNCC(=O)O

biological target: T1, Pin1 (Homo sapiens, UniProt Q13526, S16A/Y23A); experiment: Pin1 binding by FA (FITC-labeled peptides); settings: FITC-labeled peptide, FA; read-out: KD
T1 construct: The full-length human S16A/Y23A mutant Pin1 was expressed and purified from E. coli; made in house
T1 sequence (Q13526 whole entry S16A/Y23A): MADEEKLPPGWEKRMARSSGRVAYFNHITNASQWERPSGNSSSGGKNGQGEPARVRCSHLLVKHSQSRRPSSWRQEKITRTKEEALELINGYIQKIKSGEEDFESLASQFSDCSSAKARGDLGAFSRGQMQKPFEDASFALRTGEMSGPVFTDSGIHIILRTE

Kd [µM] | Structure (SMILES)
1.68 ± 0.17 | C[C@@H]1NC(=O)[C@H](CCCNC(=N)N)NC(=O)[C@H](Cc2ccc3ccccc3c2)NC(=O)[C@@H]2CCCCN2C(=O)[C@@H]([C@H](C)O)NC(=O)[C@H](Cc2c[nH]cn2)NC(=O)[C@@H](Cc2ccccc2)NC(=O)c2cc3cc(c2)C(=O)NC[C@H](NC(=O)[C@@H](Cc2ccccc2)NC1=O)C(=O)N[C@@H](Cc1ccccc1)C(=O)N[C@@H](Cc1ccc2ccccc2c1)C(=O)N[C@@H](CCCNC(=N)N)C(=O)N[C@@H](CCCNC(=N)N)C(=O)N[C@@H](CCCNC(=N)N)C(=O)N[C@@H](CCCNC(=N)N)C(=O)N[C@H](C(=O)N[C@@H](CCCCN)C(N)=O)CNC3=O [Peptide 31, bicyclo[Tm-(D-Phe-His-D-Thr-Pip-Nal-Arg-Ala-D-Phe)-Dap-(Phe-Nal-Arg-Arg-Arg-Arg-Dap)]-Lys] ([dF]H[dT][Pip][2Nal]RA[dF][Dap]F[2Nal]RRRR[Dap]K-NH2; linker N-9-16 via Trimesoyl; C-terminus assumed)
0.27 | C[C@@H]1NC(=O)[C@H](CCCNC(=N)N)NC(=O)[C@H](Cc2ccc3ccccc3c2)NC(=O)[C@@H]2CCCCN2C(=O)[C@@H]([C@H](C)O)NC(=O)[C@H](Cc2ccc(F)cc2)NC(=O)[C@@H](Cc2ccccc2)NC(=O)c2cc3cc(c2)C(=O)NC[C@H](NC(=O)[C@@H](Cc2ccccc2)NC1=O)C(=O)N[C@@H](Cc1ccccc1)C(=O)N[C@@H](Cc1ccc2ccccc2c1)C(=O)N[C@@H](CCCNC(=N)N)C(=O)N[C@@H](CCCNC(=N)N)C(=O)N[C@@H](CCCNC(=N)N)C(=O)N[C@@H](CCCNC(=N)N)C(=O)N[C@H](C(=O)N[C@@H](CCCCN)C(N)=O)CNC3=O [Peptide 27, bicyclo[Tm-(D-Phe-4-Fpa-D-Thr-Pip-Nal-Arg-Ala-D-Phe)-Dap-(Phe-Nal-Arg-Arg-Arg-Arg-Dap)]-Lys] ([dF][Phe(4-F)][dT][Pip][2Nal]RA[dF][Dap]F[2Nal]RRRR[Dap]K-NH2; linker N-9-16 via Trimesoyl; C-terminus assumed)
0.41 ± 0.1 | C[C@@H]1NC(=O)[C@H](CCCNC(=N)N)NC(=O)[C@H](Cc2ccc3ccccc3c2)NC(=O)[C@@H]2CCCCN2C(=O)[C@@H]([C@H](C)O)NC(=O)[C@H](Cc2ccc(F)c(F)c2)NC(=O)[C@@H](Cc2ccccc2)NC(=O)c2cc3cc(c2)C(=O)NC[C@H](NC(=O)[C@@H](Cc2ccccc2)NC1=O)C(=O)N[C@@H](Cc1ccccc1)C(=O)N[C@@H](Cc1ccc2ccccc2c1)C(=O)N[C@@H](CCCNC(=N)N)C(=O)N[C@@H](CCCNC(=N)N)C(=O)N[C@@H](CCCNC(=N)N)C(=O)N[C@@H](CCCNC(=N)N)C(=O)N[C@H](C(=O)N[C@@H](CCCCN)C(N)=O)CNC3=O [Peptide 29, bicyclo[Tm-(D-Phe-3,4-diFPhe-D-Thr-Pip-Nal-Arg-Ala-D-Phe)-Dap-(Phe-Nal-Arg-Arg-Arg-Arg-Dap)]-Lys] ([dF][Phe(3,4-F2)][dT][Pip][2Nal]RA[dF][Dap]F[2Nal]RRRR[Dap]K-NH2; linker N-9-16 via Trimesoyl; C-terminus assumed)

The next lines start with the compound.

Structure (SMILES) | Kd [µM]
C[C@H]1NC(=O)[C@H](CC(=O)O)NC(=O)[C@H](CCCNC(=N)N)NC(=O)[C@H](Cc2ccc3ccccc3c2)NC(=O)[C@@H]2CCCCN2C(=O)[C@@H](CC(=O)O)NC(=O)CN(C)C(=O)[C@@H]2CCCN2C(=O)c2cc3cc(c2)C(=O)NC[C@H](NC1=O)C(=O)N[C@@H](Cc1ccccc1)C(=O)N[C@@H](Cc1ccc2ccccc2c1)C(=O)N[C@@H](CCCNC(=N)N)C(=O)N[C@@H](CCCNC(=N)N)C(=O)N[C@@H](CCCNC(=N)N)C(=O)N[C@@H](CCCNC(=N)N)C(=O)N[C@H](C(=O)N[C@@H](CCCCN)C(N)=O)CNC3=O [Peptide 20, bicyclo[Tm-(Pro-Sar-D-Asp-Pip-Nal-Arg-Asp-D-Ala)-Dap-(Phe-Nal-Arg-Arg-Arg-Arg-Dap)]-Lys] (P[Sar][dD][Pip][2Nal]RD[dA][Dap]F[2Nal]RRRR[Dap]K-NH2; linker N-9-16 via Trimesoyl; C-terminus assumed) | 3.19 ± 0.5
CC(C)[C@H]1NC(=O)c2cc3cc(c2)C(=O)NC[C@H](NC(=O)[C@@H](C)NC(=O)[C@H](C)NC(=O)[C@H](CCCNC(=N)N)NC(=O)[C@H](Cc2ccc4ccccc4c2)NC(=O)[C@@H]2CCCCN2C(=O)[C@@H]([C@H](C)O)NC(=O)[C@H](Cc2ccc(F)cc2)NC1=O)C(=O)N[C@@H](Cc1ccccc1)C(=O)N[C@@H](Cc1ccc2ccccc2c1)C(=O)N[C@@H](CCCNC(=N)N)C(=O)N[C@@H](CCCNC(=N)N)C(=O)N[C@@H](CCCNC(=N)N)C(=O)N[C@@H](CCCNC(=N)N)C(=O)N[C@H](C(=O)N[C@@H](CCCCN)C(N)=O)CNC3=O [Peptide 34, bicyclo[Tm-(D-Val-4-Fpa-D-Thr-Pip-Nal-Arg-Ala-D-Ala)-Dap-(Phe-Nal-Arg-Arg-Arg-Arg-Dap)]-Lys] ([dV][Phe(4-F)][dT][Pip][2Nal]RA[dA][Dap]F[2Nal]RRRR[Dap]K-NH2; linker N-9-16 via Trimesoyl; C-terminus assumed) | 1.07 ± 0.16
CC(C)[C@@H]1NC(=O)[C@H](CCCNC(=N)N)NC(=O)[C@H](Cc2ccc3ccccc3c2)NC(=O)[C@@H]2CCCCN2C(=O)[C@@H](CC(=O)O)NC(=O)CN(C)C(=O)[C@@H]2CCCN2C(=O)c2cc3cc(c2)C(=O)NC[C@H](NC(=O)[C@@H](C)NC1=O)C(=O)N[C@@H](Cc1ccccc1)C(=O)N[C@@H](Cc1ccc2ccccc2c1)C(=O)N[C@@H](CCCNC(=N)N)C(=O)N[C@@H](CCCNC(=N)N)C(=O)N[C@@H](CCCNC(=N)N)C(=O)N[C@@H](CCCNC(=N)N)C(=O)N[C@H](C(=O)N[C@@H](CCCCN)C(N)=O)CNC3=O [Peptide 18, bicyclo[Tm-(Pro-Sar-D-Asp-Pip-Nal-Arg-Val-D-Ala)-Dap-(Phe-Nal-Arg-Arg-Arg-Arg-Dap)]-Lys] (P[Sar][dD][Pip][2Nal]RV[dA][Dap]F[2Nal]RRRR[Dap]K-NH2; linker N-9-16 via Trimesoyl; C-terminus assumed) | 1.75 ± 0.24
C[C@H]1NC(=O)[C@H](Cc2ccc(O)cc2)NC(=O)[C@H](CCCNC(=N)N)NC(=O)[C@H](Cc2ccc3ccccc3c2)NC(=O)[C@@H]2CCCCN2C(=O)[C@@H](CC(=O)O)NC(=O)CN(C)C(=O)[C@@H]2CCCN2C(=O)c2cc3cc(c2)C(=O)NC[C@H](NC1=O)C(=O)N[C@@H](Cc1ccccc1)C(=O)N[C@@H](Cc1ccc2ccccc2c1)C(=O)N[C@@H](CCCNC(=N)N)C(=O)N[C@@H](CCCNC(=N)N)C(=O)N[C@@H](CCCNC(=N)N)C(=O)N[C@@H](CCCNC(=N)N)C(=O)N[C@H](C(=O)N[C@@H](CCCCN)C(N)=O)CNC3=O [Peptide 17, bicyclo[Tm-(Pro-Sar-D-Asp-Pip-Nal-Arg-Tyr-D-Ala)-Dap-(Phe-Nal-Arg-Arg-Arg-Arg-Dap)]-Lys] (P[Sar][dD][Pip][2Nal]RY[dA][Dap]F[2Nal]RRRR[Dap]K-NH2; linker N-9-16 via Trimesoyl; C-terminus assumed) | 2.17 ± 0.55
CN1CC(=O)N[C@H](CC(=O)O)C(=O)N2CCCC[C@H]2C(=O)N[C@@H](Cc2ccc3ccccc3c2)C(=O)N[C@@H](CCCNC(=N)N)C(=O)N[C@@H](CCCNC(=N)N)C(=O)N[C@H](CC(=O)O)C(=O)N[C@H]2CNC(=O)c3cc(cc(c3)C(=O)N3CCC[C@H]3C1=O)C(=O)NC[C@@H](C(=O)N[C@@H](CCCCN)C(N)=O)NC(=O)[C@H](CCCNC(=N)N)NC(=O)[C@H](CCCNC(=N)N)NC(=O)[C@H](CCCNC(=N)N)NC(=O)[C@H](CCCNC(=N)N)NC(=O)[C@H](Cc1ccc3ccccc3c1)NC(=O)[C@H](Cc1ccccc1)NC2=O [Peptide 25, bicyclo[Tm-(Pro-Sar-D-Asp-Pip-Nal-Arg-Arg-D-Asp)-Dap-(Phe-Nal-Arg-Arg-Arg-Arg-Dap)]-Lys] (P[Sar][dD][Pip][2Nal]RR[dD][Dap]F[2Nal]RRRR[Dap]K-NH2; linker N-9-16 via Trimesoyl; C-terminus assumed) | 4.6 ± 1.42

same assay, conditions: peptide 22 vs 3; peptide 27 vs 4

Improvement of Pin1 binding by D-Phe for D-Ala vs parent peptide [fold] | Structure (SMILES)
~2 | C[C@@H]1NC(=O)[C@H](CCCNC(=N)N)NC(=O)[C@H](Cc2ccc3ccccc3c2)NC(=O)[C@@H]2CCCCN2C(=O)[C@@H]([C@H](C)O)NC(=O)[C@H](Cc2ccc(F)cc2)NC(=O)[C@@H](Cc2ccccc2)NC(=O)c2cc3cc(c2)C(=O)NC[C@H](NC(=O)[C@@H](Cc2ccccc2)NC1=O)C(=O)N[C@@H](Cc1ccccc1)C(=O)N[C@@H](Cc1ccc2ccccc2c1)C(=O)N[C@@H](CCCNC(=N)N)C(=O)N[C@@H](CCCNC(=N)N)C(=O)N[C@@H](CCCNC(=N)N)C(=O)N[C@@H](CCCNC(=N)N)C(=O)N[C@H](C(=O)N[C@@H](CCCCN)C(N)=O)CNC3=O [Peptide 27, bicyclo[Tm-(D-Phe-4-Fpa-D-Thr-Pip-Nal-Arg-Ala-D-Phe)-Dap-(Phe-Nal-Arg-Arg-Arg-Arg-Dap)]-Lys] ([dF][Phe(4-F)][dT][Pip][2Nal]RA[dF][Dap]F[2Nal]RRRR[Dap]K-NH2; linker N-9-16 via Trimesoyl; C-terminus assumed)
